The results in this text go back to patent US8435990B2, “Dihydropyrimidone amides as P2X7 modulators” (Roche Palo Alto LLC, priority 2009, dated 2013).

The assay concerns the target T1, human P2X7 (Homo sapiens, UniProt Q99572).
T1 construct: 1321N1 cells stably expressing the full length human P2X7 gene (1321N1-hP2X7)
T1 sequence (Q99572 1-595): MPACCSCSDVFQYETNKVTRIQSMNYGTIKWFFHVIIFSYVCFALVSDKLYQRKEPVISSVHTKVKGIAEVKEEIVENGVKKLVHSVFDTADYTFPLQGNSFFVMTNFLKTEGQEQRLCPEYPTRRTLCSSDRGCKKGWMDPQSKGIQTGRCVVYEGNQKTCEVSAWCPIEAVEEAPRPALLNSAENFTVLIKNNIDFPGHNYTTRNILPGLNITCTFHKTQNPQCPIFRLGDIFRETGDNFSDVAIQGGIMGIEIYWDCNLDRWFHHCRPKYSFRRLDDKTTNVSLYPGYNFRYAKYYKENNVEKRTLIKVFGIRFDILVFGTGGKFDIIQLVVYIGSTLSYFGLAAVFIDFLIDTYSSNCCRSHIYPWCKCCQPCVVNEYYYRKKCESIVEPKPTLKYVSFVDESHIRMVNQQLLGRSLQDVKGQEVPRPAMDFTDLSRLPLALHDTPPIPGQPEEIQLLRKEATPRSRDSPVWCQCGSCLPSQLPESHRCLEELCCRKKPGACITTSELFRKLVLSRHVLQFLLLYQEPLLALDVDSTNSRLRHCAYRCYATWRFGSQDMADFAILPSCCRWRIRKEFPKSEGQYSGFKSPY
The assay is described as follows: P2X7 modulator pIC50 of Table 1 (assay not given; Intracellular Calcium Flux (FLIPR) Assay assumed). The class given is cell-based. Here is the method:
Intracellular Calcium Flux (FLIPR) Assay
Stock solutions of compounds were prepared from powders as a 10 mM DMSO stock solution. These solutions were stored at RT during the two week period of these experiments to prevent freeze-thaw of the DMSO stocks. The DMSO stocks were added to the appropriate assay buffer at a concentration of 10 μM, and then diluted serially to the final concentrations that were tested. No observable precipitate was formed at any time during this process. The aqueous solutions of compounds as well as ATP (Sigma A7699) and BzATP (Sigma B6396) were prepared fresh for each day of experiment.
1321N1 cells stably expressing the full length human P2X7 gene (1321N1-hP2X7) and HEK293 cells stably expressing the full length rat P2X7 gene (HEK293-rP2X7) were obtained from the Roche Cell Culture Facility. 1321N1-hP2X7 cells were grown in Dulbecco's Modified Eagle's Medium (DMEM) high glucose supplemented with 10% FBS and 250 μg/mL G418. HEK293-rP2X7 cells were grown in DMEM/F-12 supplemented with 10% FBS, 1 mM CaCl2, 2 mM MgCl2, 2 mM L-Glutamine and 500 μg/ml G418. Cells were split such that they never became >70% confluent.
On the day prior to the experiment, 1321N1-hP2X7 or HEK293-rP2X7 cells were released into suspension with calcium-free PBS+Versene and washed by centrifugation with calcium-free PBS to remove the Versene. Cells were resuspended in growth medium at a density of 2.5×10^5 cells/mL and seeded into black walled, clear bottom 96 well plates (50,000 cells/well) approximately 18 hr prior to intracellular calcium flux experiments.
On the day of the experiment, plates were washed with FLIPR buffer (calcium- and magnesium-free Hank's Balanced Salt Solution (HBSS) supplemented with 10 mM Hepes, 2.5 mM probenecid and 2 mM calcium chloride) using a BIO-TEK 96 channel plate washer and incubated with […] fluo-3 dye at 37° C. for one hr. The dye was then removed by plate washing and the cells were allowed to equilibrate for 20 min at room temperature with antagonist or vehicle (FLIPR buffer). Agonist (100 μM BzATP final concentration for hP2X7; 5μM BzATP final concentration or rP2X7) was added online with the FLIPR and fluorescence measurements made at 1 sec intervals for 60 sec followed by 3 sec intervals for a further 4 min (5 min total). A final addition of 5 μM ionomycin was made and the maximal BzATP-evoked fluorescence normalized to the maximal ionomycin-evoked fluorescence.
As for `COc1cc(C)c(NC(=O)C2=CNC(=O)NC2c2ccc(F)cc2)cc1OC` (stereo not drawn) [Compound 1, 4-(4-Fluoro-phenyl)-2-oxo-1,2,3,4-tetrahydro-pyrimidine-5-carboxylic acid (4,5-dimethoxy-2-methyl-phenyl)-amide], the 50% inhibitory concentration (IC50) – broadly, the concentration that gives 50% inhibition – was 34.7 nM.

As to `COc1cc(C)c(NC(=O)C2=CN(C)C(=O)NC2c2ccc(F)cc2)cc1OC` (stereo not drawn) [Compound 2, 4-(4-Fluoro-phenyl)-1-methyl-2-oxo-1,2,3,4-tetrahydro-pyrimidine-5-carboxylic acid (4,5-dimethoxy-2-methyl-phenyl)-amide], the IC50 is 41.2 nM.

As to `Cc1cc(-c2ccc(C)c(NC(=O)C3=CNC(=O)N[C@@H]3c3ccc(F)cc3)c2)n[nH]1` [Compound 3, (R)-4-(4-Fluoro-phenyl)-2-oxo-1,2,3,4-tetrahydro-pyrimidine-5-carboxylic acid [2-methyl-5-(5-methyl-1H-pyrazol-3-yl)-phenyl]-amide], the concentration for half-maximal inhibition (IC50) was 173 nM.

For the molecule `COc1cc(C)c(NC(=O)C2=CNC(=O)N[C@H]2c2ccc(F)cc2)cc1OC` [Compound 4, (S)-4-(4-Fluoro-phenyl)-2-oxo-1,2,3,4-tetrahydro-pyrimidine-5-carboxylic acid (4,5-dimethoxy-2-methyl-phenyl)-amide], the IC50 was 59.8 nM.

For `Cc1cc(-c2ccc(C)c(NC(=O)C3=CNC(=O)N[C@H]3c3ccc(F)cc3)c2)n[nH]1` [Compound 5, (S)-4-(4-Fluoro-phenyl)-2-oxo-1,2,3,4-tetrahydro-pyrimidine-5-carboxylic acid [2-methyl-5-(5-methyl-1H-pyrazol-3-yl)-phenyl]-amide], the IC50 is 19.7 nM.

Take `COc1cc(C)c(NC(=O)C2=CN(C)C(=O)N[C@H]2c2ccc(F)cc2)cc1OC` [Compound 6, (S)-4-(4-Fluoro-phenyl)-1-methyl-2-oxo-1,2,3,4-tetrahydro-pyrimidine-5-carboxylic acid (4,5-dimethoxy-2-methyl-phenyl)-amide]: the IC50 was 35.1 nM.

Consider `Cc1cc(-c2ccc(C)c(NC(=O)C3=CN(C)C(=O)N[C@H]3c3ccc(F)cc3)c2)n[nH]1` [Compound 7, (S)-4-(4-Fluoro-phenyl)-1-methyl-2-oxo-1,2,3,4-tetrahydro-pyrimidine-5-carboxylic acid [2-methyl-5-(5-methyl-1H-pyrazol-3-yl)-phenyl]-amide], for which the IC50 is 35.1 nM.

For `Cc1cc(Cl)c(OCCO)cc1NC(=O)C1=CN(C)C(=O)N[C@H]1c1ccc(F)cc1` [Compound 8, (S)-4-(4-Fluoro-phenyl)-1-methyl-2-oxo-1,2,3,4-tetrahydro-pyrimidine-5-carboxylic acid [4-chloro-5-(2-hydroxy-ethoxy)-2-methyl-phenyl]-amide], the IC50 was 22.9 nM.

For the molecule `COc1cc(C)c(NC(=O)C2=CN(C)C(=O)N(C)C2c2ccc(F)cc2)cc1OC` (stereo not drawn) [Compound 9, 4-(4-Fluoro-phenyl)-1,3-dimethyl-2-oxo-1,2,3,4-tetrahydro-pyrimidine-5-carboxylic acid (4,5-dimethoxy-2-methyl-phenyl)-amide], the IC50 was 196 nM.

For the molecule `COc1cc(C)c(NC(=O)C2=CNC(=O)N[C@@H]2c2ccc(F)cc2)cc1OC` [Compound 10, (R)-4-(4-Fluoro-phenyl)-2-oxo-1,2,3,4-tetrahydro-pyrimidine-5-carboxylic acid (4,5-dimethoxy-2-methyl-phenyl)-amide], the IC50 was 359 nM.

With `Cc1ccc2ncccc2c1NC(=O)C1=CN(C)C(=O)N[C@H]1c1ccc(F)cc1` [Compound 11, (S)-4-(4-Fluoro-phenyl)-1-methyl-2-oxo-1,2,3,4-tetrahydro-pyrimidine-5-carboxylic acid (6-methyl-quinolin-5-yl)-amide], the concentration for half-maximal inhibition (IC50) is 120 nM.

As for `COc1cc(C)c(NC(=O)C2=CN(CCO)C(=O)NC2c2ccc(F)cc2)cc1OC` (stereo not drawn) [Compound 12, 4-(4-Fluoro-phenyl)-1-(2-hydroxy-ethyl)-2-oxo-1,2,3,4-tetrahydro-pyrimidine-5-carboxylic acid (4,5-dimethoxy-2-methyl-phenyl)-amide], the half-inhibitory concentration (IC50) is 111 nM.

With `COc1cc(C)c(NC(=O)C2=CNC(=O)N(C)C2c2ccc(F)cc2)cc1OC` (stereo not drawn) [Compound 13, 4-(4-Fluoro-phenyl)-3-methyl-2-oxo-1,2,3,4-tetrahydro-pyrimidine-5-carboxylic acid (4,5-dimethoxy-2-methyl-phenyl)-amide], the half-maximal inhibitory concentration (IC50) was 85.1 nM.

As to `Cc1cc(-c2ccc(C)c(NC(=O)C3=CN(C)C(=O)NC3c3cccc(F)c3)c2)n[nH]1` (stereo not drawn) [Compound 14, 4-(3-Fluoro-phenyl)-1-methyl-2-oxo-1,2,3,4-tetrahydro-pyrimidine-5-carboxylic acid [2-methyl-5-(5-methyl-1H-pyrazol-3-yl)-phenyl]-amide], the IC50 is 57.9 nM.

On to `Cc1cnn(-c2ccc(C)c(NC(=O)C3=CN(C)C(=O)N[C@H]3c3ccc(F)cc3)c2)c1` [Compound 15, (S)-4-(4-Fluoro-phenyl)-1-methyl-2-oxo-1,2,3,4-tetrahydro-pyrimidine-5-carboxylic acid [2-methyl-5-(4-methyl-pyrazol-1-yl)-phenyl]-amide], for which the half-inhibitory concentration (IC50) is 14.1 nM.

With `Cc1cc(F)c(OCCO)cc1NC(=O)C1=CN(C)C(=O)N[C@H]1c1ccc(F)cc1` [Compound 16, (S)-4-(4-Fluoro-phenyl)-1-methyl-2-oxo-1,2,3,4-tetrahydro-pyrimidine-5-carboxylic acid [4-fluoro-5-(2-hydroxy-ethoxy)-2-methyl-phenyl]-amide], the IC50 was 9.23 nM.

For `CCN1C=C(C(=O)Nc2cc(OCCO)c(Cl)cc2C)[C@H](c2ccc(F)cc2)NC1=O` [Compound 17, (S)-1-Ethyl-4-(4-fluoro-phenyl)-2-oxo-1,2,3,4-tetrahydro-pyrimidine-5-carboxylic acid [4-chloro-5-(2-hydroxy-ethoxy)-2-methyl-phenyl]-amide], the 50% inhibitory concentration (IC50) was 24 nM.

As for `Cc1ccc(-c2nnc(C)n2C)cc1NC(=O)C1=CN(C)C(=O)N[C@H]1c1ccc(F)cc1` [Compound 18, (S)-4-(4-Fluoro-phenyl)-1-methyl-2-oxo-1,2,3,4-tetrahydro-pyrimidine-5-carboxylic acid [5-(4,5-dimethyl-4H-[1,2,4]triazol-3-yl)-2-methyl-phenyl]-amide], the IC50 is 22.1 nM.

On to `Cc1ccc(-c2cc(C)n(C[C@@H](O)CO)n2)cc1NC(=O)C1=CN(C)C(=O)N[C@H]1c1ccc(F)cc1` [Compound 19, (S)-4-(4-Fluoro-phenyl)-1-methyl-2-oxo-1,2,3,4-tetrahydropyrimidine-5-carboxylic acid {5-[1-((R)-2,3-dihydroxy-propyl)-5-methyl-1H-pyrazol-3-yl]-2-methyl-phenyl}-amide], for which the 50% inhibitory concentration (IC50) is 22.9 nM.

Take `Cc1ccc2c(NC(=O)C3=CN(C)C(=O)N[C@H]3c3ccc(F)cc3)c(C)ccc2n1` [Compound 21, (S)-4-(4-Fluoro-phenyl)-1-methyl-2-oxo-1,2,3,4-tetrahydro-pyrimidine-5-carboxylic acid (2,6-dimethyl-quinolin-5-yl)-amide]: the concentration for half-maximal inhibition (IC50) was 88.1 nM.

In the case of `Cc1ccc(-c2ccnn(C)c2=O)cc1NC(=O)C1=CN(C)C(=O)N[C@H]1c1ccc(F)cc1` [Compound 22, (S)-4-(4-Fluoro-phenyl)-1-methyl-2-oxo-1,2,3,4-tetrahydro-pyrimidine-5-carboxylic acid [2-methyl-5-(2-methyl-3-oxo-2,3-dihydro-pyridazin-4-yl)-phenyl]-amide], the 50% inhibitory concentration (IC50) was 11.5 nM.
